Test results reported in patent publication US20100021938A1, “Diagnosis and Prediction of Alzheimer's Disease” (priority 2008, published 2010).

Assays:
human platelets = test: sAPPα release by human platelets, Western blot of supernatant (antibody 6E10); type: cell-based; conditions: for sAPPα release by washed platelets: collagen up to 5 μg/ml, ADP up to 25 μM
Procedure: FIG. 2: sAPPα release is mediated through G protein-coupled receptors. Human platelets (600,000 cells/μl) were incubated with 20 μM arachidonic acid (AA), U46,619 (500 nM), PAR1-AP (100 μM), PAR4-AP (200 μM) or thrombin (1 U/ml) for 1 h. The cells were then pelleted at 10,000×g for 15 min and the levels of sAPPα in the supernatant were determined by Western blot analysis using the antibody 6E10 (Calbiochem).
FIG. 3: The effect of arachidonic acid is mediated by the TP receptor. Left panel: Human platelets were incubated by increasing concentrations of U46,619 and sAPPa was analyzed in the supernatant as described for FIG. 2. Right panel: Human platelets were pre-incubated for 15 min with increasing concentration of an antagonist of the TP receptor, SQ29,548, prior addition of 7.5 μM of arachidonic acid. sAPPα release was analyzed by western blot.
FIG. 4: Activation of PGI2 receptor inhibits sAPPa release triggered by U46,619. Human platelets were pre-incubated for 30 min with increasing concentrations of carbaprostacylin prior addition of 500 nM of U46,619. After 1 h the levels of sAPPa in the supernatant were determined by western blot analysis. Protein bands were scanned and the pixels integrated. sAPPa release is expressed as a percent of maximum where no CP was added.
FIG. 5: PGE2 potentiates the effect of a sub-efficacious concentration of arachidonic acid. Washed platelets were pre-incubated for 2 min with increasing concentrations of PGE2 or vehicle prior addition of 0.5 μM of arachidonic acid. After 1 h, sAPPα release in the supernatant was determined by Western blot analysis as described in FIG. 2. Protein bands were scanned and the pixels integrated. sAPPα release is expressed as a percent of the maximum obtained with 7.5 nM PGE2 and 0.5 μM arachidonic acid.
Secretion of sAPPα has been analyzed in human platelets in response to various agonists.

[1] = molecular target: T1, M1 muscarinic receptor (M1mAChR) (Homo sapiens, UniProt P11229); conditions: patients with AD (Nitsch et al., 2000); cited from earlier work
T1 construct: host or cells: patients with AD (endogenous receptor, in vivo)
T1 sequence (P11229 1-460): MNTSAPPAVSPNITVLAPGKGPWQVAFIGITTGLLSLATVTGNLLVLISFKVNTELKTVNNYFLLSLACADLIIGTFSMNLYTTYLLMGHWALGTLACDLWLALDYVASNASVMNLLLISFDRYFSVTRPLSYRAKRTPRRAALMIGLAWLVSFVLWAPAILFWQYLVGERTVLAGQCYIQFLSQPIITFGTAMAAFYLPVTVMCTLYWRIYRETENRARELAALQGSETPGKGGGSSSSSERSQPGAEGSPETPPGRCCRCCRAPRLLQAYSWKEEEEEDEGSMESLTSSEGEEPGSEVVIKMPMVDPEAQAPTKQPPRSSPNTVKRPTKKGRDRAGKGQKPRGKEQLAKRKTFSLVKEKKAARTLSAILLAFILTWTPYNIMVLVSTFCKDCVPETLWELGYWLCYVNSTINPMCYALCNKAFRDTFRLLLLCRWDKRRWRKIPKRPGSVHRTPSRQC

3xTg-AD mice = conditions: cited from earlier work
human washed platelets = test: sAPPα and sAPPβ released from activated human washed platelets, LC/ESI/MS/MS; type: cell-based; conditions: 300 μl platelets at 600,000 cells/μl activated with 500 nM
Procedure: FIG. 10: Detection of the two sAPP isoforms released from human platelets. 300 μl of human washed platelets at 600,000 cells/μl were activated with 500 nM U46,619. sAPPs released in the medium were immunoprecipitated and digested with trypsin. The peptides were analyzed as described above. The product ions y6 and y4 were monitored for TEEISEVK and MDAEFR, respectively. Chromatograms of the two product ions are shown for each sAPP isoform.
Internal standards for each peptide were obtained by incorporation of a [^13C] labeled amino acid. Human washed platelets (600,000 cells/Ml, 300 μl) were activated with 500 nM of U46,619 and the release of sAPPs was analyzed after centrifuging the cells at 2,000×g for 15 min. After immunoprecipitation of the sAPPs and digestion with trypsin, 150 pg of MDAE[^13C]-FR and TEE[^13C]-ISEVK were added as internal standards and the samples were analyzed by LC/ESI/MS/MS using the LCQ Deca XP ion trap mass spectrometer (Thermo Scientific, Waltham, Mass.).

[2] = 3xTg-AD mice (Caccamo et al., 2006)

## Nc1ncnc2c1ncn2[C@@H]1O[C@H](COP(=O)(O)OP(=O)(O)O)[C@@H](O)[C@H]1O [ADP]
Human platelets
  sAPPα release by washed platelets: had no effect on sAPPα release

## CC1OC2(CS1)CN1CCC2CC1 (centres unmarked) [AF102B]
[1]
  levels of amyloid in cerebrospinal fluid: decrease the levels of amyloid in cerebrospinal fluid

## CC[C@@H]1SC2(CCN(C)CC2)NC1=O [AF267B]
3xTg-AD mice; [2]
  APP processing via the β-secretase pathway: decreases APP processing via the β-secretase pathway
  development of amyloid pathology: decreases development of amyloid pathology
3xTg-AD mice; Caccamo et al., 2006
  expression of ADAM 17/TACE: increases expression of ADAM 17/TACE

## CCCCC[C@H](O)/C=C/[C@H]1[C@H](O)CC(=O)[C@@H]1C/C=C\CCCC(=O)O [PGE2]
Human platelets; concentrations higher than 10 nM, with 0.5 μM arachidonic acid
  potentiation of sAPPα release by sub-efficacious arachidonic acid: this potentiation effect was reversed
Human platelets; highest concentration used, without arachidonic acid
  sAPPα release, compound by itself: had no effect on sAPPα release
Human platelets; low nanomolar concentrations, pre-incubated 2 min prior to 0.5 μM arachidonic acid, 1 h
  potentiation of sAPPα release by sub-efficacious arachidonic acid: potentiates sAPPα release
Human platelets; washed platelets, 0.5 μM arachidonic acid, 1 h
  concentration giving maximum sAPPα release with 0.5 μM arachidonic acid: 7.5 nM

## O=C(O)CCC/C=C\C[C@@H]1[C@H](CNNC(=O)Nc2ccccc2)[C@H]2CC[C@@H]1O2 [SQ29,548]
Human platelets; pre-incubated 15 min with increasing concentrations prior to 7.5 μM arachidonic acid
  effect on sAPPα release triggered by arachidonic acid: antagonized

## CCCCC[C@H](O)/C=C/[C@@H]1[C@@H](C/C=C\CCCC(=O)O)[C@H]2CO[C@@H]1C2 [U46,619]
Human washed platelets
  amount of sAPPα released: 45 pg
  amount of sAPPβ released: 41 pg
Human platelets; human platelets 600,000 cells/μl, 1 h incubation, U46,619 500 nM, PAR1-AP 100 μM, PAR4-AP 200 μM
  sAPPα release in response to agonist: gave the same response as 20 μM of arachidonic acid
Human platelets; human platelets, increasing concentrations
  concentration giving maximal response of sAPPα release: 500 nM

## CCCCC/C=C\C/C=C\C/C=C\C/C=C\CCCC(=O)O [arachidonic acid]
Human platelets; human platelets
  concentration giving maximal effect on sAPPα release: 7.5 µM

## CCCCC[C@H](O)/C=C/[C@@H]1[C@H]2C/C(=C/CCCC(=O)O)C[C@H]2C[C@H]1O [carbaprostacyclin]
Human platelets; pre-incubated 30 min with increasing concentrations prior to 500 nM U46,619, 1 h
  effect on sAPPα release triggered by U46,619: antagonized in a dose-dependent manner the effect of U46,619

## collagen
Human platelets
  sAPPα release by washed platelets: failed to trigger release of sAPPα
